# How the values were obtained:
# IL-6 = IL-6 mRNA level (qPCR) in cytokine-stimulated Caco-2 cells; type: cell-based, human
# Procedure: (§1) Confluent Caco-2 cells were stimulated with a cocktail of cytokines comprised of tumour necrosis factor-α (TNF-α, 20 ng mL^−1), interleukin-1β (IL-1β, 40 ng mL^−1), interferon-γ (IFN-γ, 10 ng mL^−1) and lipopolysaccharide (LPS, 100 ng mL^−1) in the presence or absence of BET, VUL and IND treatments (5–80 µM) for 6 h. With the completion of incubations, cells were washed with cold DPBS and lysed with TRIsure reagent (Scientific Laboratory Supplies Ltd.). Total RNA of cell samples was extracted in accordance with the manufacturer’s instructions. After resuspending the RNA pellets in DEPC water, concentration and quality were determined using the NanoQuant plate (Tecan Spark 10M plate reader) at 260 and 280 nm. Reverse transcription of RNA was achieved using the iScript™ cDNA Synthesis Kit (Bio-Rad). Transcription levels of target genes—interleukin 6 (IL-6), IL-8, COX-2, iNOS, NADPH oxidase 1 (NOX-1), NAD(P)H quinone dehydrogenase 1 (NQO-1), heme oxygenase 1 (HO-1), glutamate-cysteine ligase catalytic subunit (GCLC), glutathione peroxidase 1 (GPX-1), glutathione S-transferase 1 (GSTA-1) and GSTP-1 were evaluated using SybrGreen based reagent (SensiFast SYBR Green, SLS Ltd., Galveston, TX, USA) via real-time qPCR using StepOne Plus Real-Time PCR System (Applied Biosystems, Nottingham, UK). Primers of target genes were designed and blasted using the NCBI database, whose PCR product sizes were confirmed by 2% agarose gel electrophoresis. The list of primer sequences used in the study is presented in Supplemental Table S1. The calculation of target gene levels was based upon the Livak (2^−ΔΔCT) method with normalisation to the housekeeping gene, β-actin [31].
# IL-8 = IL-8 mRNA level (qPCR) in cytokine-stimulated Caco-2 cells; type: cell-based, human
# Procedure: as §1
# COX-2 [1] = experiment: COX-2 mRNA level (qPCR) in cytokine-stimulated Caco-2 cells; type: cell-based, human; conditions: 5–80 μM, 6 h cytokine stimulation, maximum effect
# Procedure: as §1, with “Primers of target genes were designed and blasted using the NCBI database, whose PCR product sizes were confirmed by 2% agarose gel electrophoresis. The list of primer sequences used in the study is presented in Supplemental Table S1. The calculation of target gene levels was based upon the Livak (2^−ΔΔCT) method with normalisation to the housekeeping gene, β-actin [31].” left out
# iNOS [2] = experiment: iNOS mRNA level (qPCR) in cytokine-stimulated Caco-2 cells; type: cell-based, human; conditions: 5–80 μM, 6 h cytokine stimulation, maximum effect
# Procedure: as §1, with “Primers of target genes were designed and blasted using the NCBI database, whose PCR product sizes were confirmed by 2% agarose gel electrophoresis. The list of primer sequences used in the study is presented in Supplemental Table S1. The calculation of target gene levels was based upon the Livak (2^−ΔΔCT) method with normalisation to the housekeeping gene, β-actin [31].” left out
# NOX-1 [3] = experiment: NOX-1 mRNA level (qPCR) in cytokine-stimulated Caco-2 cells; type: cell-based, human; conditions: 5–80 μM, 6 h cytokine stimulation, maximum effect
# Procedure: as §1, with “Primers of target genes were designed and blasted using the NCBI database, whose PCR product sizes were confirmed by 2% agarose gel electrophoresis. The list of primer sequences used in the study is presented in Supplemental Table S1. The calculation of target gene levels was based upon the Livak (2^−ΔΔCT) method with normalisation to the housekeeping gene, β-actin [31].” left out
# GCLC = GCLC mRNA level (qPCR) in cytokine-stimulated Caco-2 cells; type: cell-based, human; conditions: 5–80 μM, 6 h cytokine stimulation, vs SC
# Procedure: as §1, with “Primers of target genes were designed and blasted using the NCBI database, whose PCR product sizes were confirmed by 2% agarose gel electrophoresis. The list of primer sequences used in the study is presented in Supplemental Table S1. The calculation of target gene levels was based upon the Livak (2^−ΔΔCT) method with normalisation to the housekeeping gene, β-actin [31].” left out
# GPX-1 = GPX-1 mRNA level (qPCR) in cytokine-stimulated Caco-2 cells; type: cell-based, human; conditions: 5–80 μM, 6 h cytokine stimulation, vs SC
# Procedure: as §1, with “Primers of target genes were designed and blasted using the NCBI database, whose PCR product sizes were confirmed by 2% agarose gel electrophoresis. The list of primer sequences used in the study is presented in Supplemental Table S1. The calculation of target gene levels was based upon the Livak (2^−ΔΔCT) method with normalisation to the housekeeping gene, β-actin [31].” left out
# GSTA-1 = GSTA-1 mRNA level (qPCR) in cytokine-stimulated Caco-2 cells; type: cell-based, human; conditions: 5–80 μM, 6 h cytokine stimulation, vs SC
# Procedure: as §1, with “Primers of target genes were designed and blasted using the NCBI database, whose PCR product sizes were confirmed by 2% agarose gel electrophoresis. The list of primer sequences used in the study is presented in Supplemental Table S1. The calculation of target gene levels was based upon the Livak (2^−ΔΔCT) method with normalisation to the housekeeping gene, β-actin [31].” left out
# Caco-2 cells = experiment: Intracellular ROS formation (DCFH2-DA) in H2O2-stressed Caco-2 cells; type: cell-based, human; conditions: at 80 μM, 200 μM H2O2
# Procedure: The generation of reactive oxygen species (ROS) within Caco-2 cells was determined in 96-well plates with the probe 2′,7′-dichlorodihydrofluorescein diacetate (DCFH2-DA), which is intracellularly deacetylated and oxidised to highly fluorescent 2′,7′-dichlorofluorescein (DCF). DCFH2-DA (30 µM) dissolved in PBS with 1% FBS (v/v) was applied to the confluent Caco-2 cells and incubated for 40 min at 37 °C. After washing, cells were treated with BET, VUL and IND (5–80 μM) for 1 h and subsequently stressed with H2O2 (200 μM) for a further 1 h. The plate was scanned using Tecan Spark 10M^TM with excitation λ of 485 nm and emission λ of 535 nm. Subsequently, the protein content of each well was determined by SRB assay. Briefly, the medium was removed and the cells were washed with PBS and submerged with 50 μL of 0.004% SRB solution (w/v) in 10% trichloroacetic acid (w/v). Cells were incubated at room temperature for 15 min and washed with 1% acetic acid (200 μL, v/v). After treating with Tris base (10 mM, 100 μL), cells were incubated for 5 min under shaking conditions. Finally, the plate was scanned using a Tecan plate reader with excitation λ of 540 nm and emission λ of 590 nm. Results of the ROS assay were normalised to the relative protein content for each well and expressed as the relative fluorescence intensity % (RFI) with respect to the value of positive control.
# [4] = EPR spin-trapping superoxide radical scavenging assay; conditions: 20, 50 μM betalain
# Procedure: (§2) Electron paramagnetic resonance (EPR) with spin trapping was used to determine superoxide and DPPH radical scavenging abilities of betalains reflected by the reduction of relative signal strength. EPR spectra were recorded 1 min after reagent mixing on a JEOL X320 spectrometer (X-band) in glass capillaries (0.8 mm ID). Superoxide assay was carried out by mixing the following solutions in 30% aqueous ethanol as solvent: hypoxanthine (1 mM, 55 μL), 5,5-dimethyl-1-pyrroline-N-oxide (DMPO) (1 M, 15 μL) and deferoxamine (10 mM, 10 μL). Individual betalains (200 and 500 μM) or solvent control were subsequently added in a volume of 10 μL. The reaction was initiated by the addition of 2 U mL^−1 xanthine oxidase (10 μL), achieving 20 and 50 μM as final concentrations of betalains in the mixture.
# (§3) The 2,2-diphenyl-1-(2,4,6-trinitrophenyl)hydrazyl (DPPH) assay was conducted by mixing ethanol (40 μL) with 30% aqueous ethanol solutions of DPPH (100 μM, 50 μL) and purified betalains (200 μM, 10 μL), providing the working concentration of betalains as 20 μM. In both assays, acquisition of EPR spectra was started 1 min after reagent mixing. To improve the accuracy of measurements, the signal intensity for the superoxide assay was determined in triplicate by fitting the experimental spectra to the simulated superoxide-DMPO adduct spectra.
# [5] = EPR DPPH radical scavenging assay; conditions: 20 μM betalain
# Procedure: as §2, §3
# [6] = Trans-epithelial transport (AP-to-BL) across differentiated Caco-2 monolayer; type: in vitro ADME, human; conditions: human, Caco-2, 1 mM in AP chamber, apical pH 6.5, basolateral pH 7.5, read-out: Papp (apparent permeability coefficient), absorptive direction AP-to-BL
# Procedure: (§4) Trans-epithelial transport of purified betalains (AP-to-BL) was investigated in differentiated Caco-2 cells in 12-well plate transwell inserts (PET membrane, 0.4 μm pore size, Sarstedt) at an initial density of 1 × 10^5 cells cm^−2. Complete medium was added in both apical (AP) and basolateral (BL) chambers and was replaced every 2–3 days. Cell membrane integrity was monitored weekly through measurement of trans-epithelial electrical resistance (TEER) across the growth area until full differentiation of the cells after 21 days. During the experiment, Hanks’ balanced salt solution (HBSS) in the apical compartment was adjusted to pH 6.5 with MES (2 mM), while basolateral pH remained at 7.5 [25]. Purified BET, VUL and IND (420–1000 μM) were supplied to the apical side of the membrane and incubated at 37 °C for up to 2 h. As a marker compound of paracellular transport, phenolsulfonaphtalein (5 mM) was also applied to parallel cell membranes in the apical chamber. The study also evaluated the permeability of compounds through the Caco-2 membrane with a loosened tight junction in parallel wells which was achieved by 5-min incubation of differentiated membrane in trypsin EDTA (0.05%, v/v). The basolateral solution was collected and replaced every 30 min until 2 h, under initial rate conditions. The betalain-containing solutions were processed and submitted to LC-MS analysis, while phenolsulfonaphtalein was quantified spectrophotometrically at λ of 430 nm. TEER values were monitored at the beginning and the end of the experiment to check the impact of compounds on monolayer integrity. The apparent permeability coefficients (Papp) were calculated as per Equation (1), where V = volume of basolateral solution, A = cell growth area, C0 = initial concentration of apical betalain and dC/dt = steady-state flux across the monolayer. (1) Papp=1/C0×A·V×dC/dt
# (§5) Betalain compounds from the cell culture samples were quantified and identified by an ultra-high-speed LC fitted with a UV-Vis detector (SPD-20A), followed by a single quadrupole MS with an electrospray ionisation source (ESI) (Shimazu, 2020). HPLC separation was performed by a reverse phase C18 column (100 mm × 2.1 mm I.D., 3.5 μm) at the temperature of 35 °C. […] Betacyanins and betaxanthins were detected at the wavelengths of 536 nm and 486 nm, respectively, and their molecular weights were monitored by ESI-MS with positive ion mode. Compounds were identified based on the m/z values and quantified using standard curves with purified betalains, as shown in Supplemental Figure S1.
# [7] = tested on: differentiated Caco-2 cells; experiment: as above; type: in vitro ADME, human; conditions: AP-to-BL
# Procedure: as §4, §5
# [8] = tested on: differentiated Caco-2 cells; experiment: Intracellular accumulation in differentiated Caco-2 cells; type: in vitro ADME, human; conditions: 250 μM, 2 h incubation in HBSS
# Procedure: For accumulation experiments, differentiated Caco-2 cells were incubated with purified BET, VUL and IND (250 μM) for 2 h in HBSS. The cell layer was washed twice with DPBS prior to being scraped into methanol, and pigments were subsequently extracted for LC-MS analysis. The total protein content of lysed cells was determined by bicinchoninic acid (BCA) assay (Pierce™ Thermo Scientific) in accordance with the manufacturer’s instructions.
# as §5
# COX-2 [9] = tested on: COX-2; set-up: method as in PMID 24306215; conditions: rat model of carrageenan-induced pleurisy; cited from earlier work
# iNOS [10] = tested on: iNOS; set-up: method as in PMID 24306215; conditions: rat model of carrageenan-induced pleurisy; cited from earlier work
# COX-2 [11] = tested on: COX-2; set-up: method as in PMID 23931157; conditions: 25 μM; cited from earlier work
# iNOS [12] = tested on: iNOS; set-up: method as in PMID 23931157; conditions: 25 μM; cited from earlier work
# NOX-1 [13] = tested on: NOX-1; set-up: method as in PMID 23931157; conditions: 25 μM; cited from earlier work
# [14] = set-up: method as in PMID 15447903, PMID 24306215, PMID 28358315; conditions: in vivo; cited from earlier work
# [15] = set-up: method as in PMID 18959410; conditions: cited from earlier work
# [16] = 5–80 μM, 6 h cytokine stimulation, maximum effect
# [17] = 10 μM co-treatment, 6 h, positive control (not shown)
smiles,measurement,setting,value
"O=C(O)C1=C/C(=C/C=[N+]2/CCC[C@H]2C(=O)[O-])C[C@@H](C(=O)O)N1 [IND, indicaxanthin]",Downregulation of IL-6 expression vs cytokine control (SC),IL-6; [16],up to 50%
same,Downregulation of IL-8 expression vs cytokine control (SC),IL-8; [16],≤ 39%
same,Attenuation of COX-2 mRNA levels,COX-2 [1],up to 34%
same,Reduction of iNOS mRNA levels,iNOS [2],< 42%
same,Attenuation of NOX-1 mRNA levels,NOX-1 [3],up to 34%
same,Upregulation of GCLC expression,GCLC,< 25%
same,Upregulation of GPX-1 expression,GPX-1,< 26%
same,Induction of GSTA-1 expression,GSTA-1,< 50%
same,Reduction of H2O2-stimulated ROS,Caco-2 cells,14%
same,Antiradical activity in superoxide assay (EPR),[4],did not exhibit any evident antiradical activity
same,Antiradical activity in DPPH assay (EPR),[5],did not exhibit any evident antiradical activity
same,"Papp A→B at 2 h, 1 mM",[6],0.893 ×10⁻⁶ cm/s
same,Proportion transported within 2 h of total amount applied,[7],2.2%
same,Intracellular accumulation,[8],0.03 nmol per mg of protein
same,Suppression of COX-2,COX-2 [9],88%
same,Suppression of iNOS,iNOS [10],75%
same,Suppression of COX-2 protein levels,COX-2 [11],80%
same,Suppression of iNOS protein levels,iNOS [12],90%
same,Suppression of NOX-1 protein levels,NOX-1 [13],89%
same,Plasma concentration of IND compared with BET,[14],around 20 fold
same,Urinary recovery of IND compared with BET,[14],around 20 fold
same,Loss along the digestion,[15],minor loss
"COc1cc(/C=C/C(=O)CC(=O)/C=C/c2ccc(O)c(OC)c2)ccc1O [curcumin, reference compound]",Effect on cytokine-induced IL-6 generation,IL-6; [17],strongly suppressed
same,Effect on cytokine-induced IL-8 generation,IL-8; [17],strongly suppressed
